pEC50: −log10 of the molar value. Starred links: 1 amine or outer side, 2 acyl side, 3 side chain; linkers in the order of their positions; H or OH if unused. Positions of bridges follow the written chain, without caps; N, C: chain ends. Non-standard residues stand in square brackets, D forms with d. Residues, ends and D or L forms follow the SMILES beside them. Chains are numbered I, II in the order given. Orn = NCCC[C@H](N)C(=O)O; X1 = O=C(C[*:1])[*:2]
What was measured:
[1] = Cytotoxicity against human MT4 cells by MTT assay; format: cell-based
[2] = Cytotoxicity against human MT4 cells by MTT assay in presence of 5 uM of chloroquine; format: cell-based
[3] = test system: Human immunodeficiency virus 1; experiment: Antiviral activity against T-cell line-tropic HIV1 NL4-3 infected in human MT4 cells assessed as inhibition of virus-induced cytopathogenicity after 5 days by MTT assay; format: functional, organism-based; conditions: Human immunodeficiency virus 1, NL4-3, MT4, 120 h
[4] = test system: Human immunodeficiency virus 1; experiment: Antiviral activity against T-cell line-tropic HIV1 NL4-3 infected in human MT4 cells assessed as inhibition of virus-induced cytopathogenicity after 5 days by MTT assay in presence of 5 uM of chloroquine; format: functional, organism-based; conditions: Human immunodeficiency virus 1, NL4-3, MT4, 120 h
[5] = test system: Human immunodeficiency virus 1; experiment: Antiviral activity against macrophage-tropic HIV1 NL(AD8) infected in human PM1 expressing CCR5 cells assessed as inhibition of virus-induced cytopathogenicity after 5 days by MTT assay in presence of 5 uM of chloroquine; format: functional, organism-based; conditions: Human immunodeficiency virus 1, NL(AD8), PM1/CCR5, 120 h
[6] = Cytotoxicity against human PM1 cells expressing CCR5 by MTT assay in presence of 5 uM of chloroquine; format: cell-based

SMILES | CC50 [1] [µM] | CC50 [2] [µM] | pEC50 [3] | pEC50 [4] | pEC50 [5] | CC50 [6] [µM]
CC[C@H](C)[C@H](NC(=O)[C@H](CCCNC(=N)N)NC(=O)[C@H](CCC(N)=O)NC(=O)[C@H](Cc1c[nH]cn1)NC(=O)[C@@H](NC(=O)[C@H](CO)NC(=O)[C@H](Cc1ccc(O)cc1)NC(=O)[C@H](CC(C)C)NC(=O)[C@@H](NC(=O)[C@H](C)NC(=O)[C@@H](NC(=O)[C@@H](NC(=O)[C@H](CC(N)=O)NC(=O)[C@H](Cc1ccc(O)cc1)NC(=O)[C@H](CC(C)C)NC(C)=O)[C@@H](C)O)[C@@H](C)CC)C(C)C)C(C)C)C(=O)NCC(=O)N[C@@H](CSCC(=O)N[C@@H](CCCNC(=N)N)C(=O)N[C@@H](CCCN)C(=O)N[C@@H](CCCNC(=N)N)C(=O)N[C@@H](CCCN)C(=O)N[C@@H](CCCNC(=N)N)C(=O)N[C@@H](CCCN)C(=O)N[C@@H](CCCNC(=N)N)C(=O)N[C@@H](CCCN)C(N)=O)C(N)=O (I: Ac-LYNTIAVLYSVHQRIGC-NH2 / II: R[Orn]R[Orn]R[Orn]R[Orn]-NH2; linker I:17-II:N via X1) | 11 | 12 | 5.20 | 6.19 | 5.55 | 8.7
CC[C@H](C)[C@H](NC(=O)[C@@H](NC(=O)[C@H](CC(N)=O)NC(=O)[C@H](Cc1ccc(O)cc1)NC(=O)[C@H](CC(C)C)NC(=O)[C@H](CO)NC(=O)[C@H](CCCNC(=N)N)NC(=O)[C@H](CC(C)C)NC(C)=O)[C@@H](C)O)C(=O)N[C@@H](C)C(=O)N[C@H](C(=O)N[C@@H](CC(C)C)C(=O)N[C@@H](Cc1ccc(O)cc1)C(=O)N[C@@H](CO)C(=O)N[C@H](C(=O)N[C@@H](Cc1c[nH]cn1)C(=O)NCC(=O)N[C@@H](CSCC(=O)N[C@@H](CCCNC(=N)N)C(=O)N[C@@H](CCCN)C(=O)N[C@@H](CCCNC(=N)N)C(=O)N[C@@H](CCCN)C(=O)N[C@@H](CCCNC(=N)N)C(=O)N[C@@H](CCCN)C(=O)N[C@@H](CCCNC(=N)N)C(=O)N[C@@H](CCCN)C(N)=O)C(N)=O)C(C)C)C(C)C | 8.5 | 10 | < 5.07 | 5.34 | < 5.28 | 5.2
CC[C@H](C)[C@H](NC(=O)[C@@H](NC(=O)[C@H](CC(N)=O)NC(=O)[C@H](Cc1ccc(O)cc1)NC(=O)[C@H](CC(C)C)NC(=O)[C@H](CO)NC(=O)[C@H](CCCNC(=N)N)NC(=O)[C@H](CC(C)C)NC(=O)[C@H](CCC(=O)O)NC(C)=O)[C@@H](C)O)C(=O)N[C@@H](C)C(=O)N[C@H](C(=O)N[C@@H](CC(C)C)C(=O)N[C@@H](Cc1ccc(O)cc1)C(=O)N[C@@H](CO)C(=O)N[C@H](C(=O)NCC(=O)N[C@@H](CSCC(=O)N[C@@H](CCCNC(=N)N)C(=O)N[C@@H](CCCN)C(=O)N[C@@H](CCCNC(=N)N)C(=O)N[C@@H](CCCN)C(=O)N[C@@H](CCCNC(=N)N)C(=O)N[C@@H](CCCN)C(=O)N[C@@H](CCCNC(=N)N)C(=O)N[C@@H](CCCN)C(N)=O)C(N)=O)C(C)C)C(C)C | 7.7 | 8.1 | < 5.11 | 5.35 | 5.64 | 8.4
COC[C@@H](c1ccc(C(F)(F)F)cc1)N1CCN(C2(C)CCN(C(=O)c3c(C)ncnc3C)CC2)C[C@@H]1C [VICRIVIROC] | > 5 | > 5 | < 5.30 | < 5.30 | 8.31 | > 5
CC[C@H](C)[C@H](NC(=O)[C@H](CCCCN)NC(=O)[C@@H](NC(=O)[C@H](CCC(N)=O)NC(=O)[C@H](CCCNC(=N)N)NC(=O)[C@H](C)NC(=O)[C@H](Cc1c[nH]cn1)NC(C)=O)[C@@H](C)O)C(=O)N[C@@H](Cc1ccc(O)cc1)C(=O)N[C@H](C(=O)N[C@H](C(=O)N[C@@H](CC(=O)O)C(=O)N[C@H](C(=O)N[C@@H](CC(C)C)C(=O)N[C@@H](CO)C(=O)N[C@H](C(=O)NCC(=O)N[C@@H](CSCC(=O)N[C@@H](CCCNC(=N)N)C(=O)N[C@@H](CCCN)C(=O)N[C@@H](CCCNC(=N)N)C(=O)N[C@@H](CCCN)C(=O)N[C@@H](CCCNC(=N)N)C(=O)N[C@@H](CCCN)C(=O)N[C@@H](CCCNC(=N)N)C(=O)N[C@@H](CCCN)C(N)=O)C(N)=O)C(C)C)C(C)C)C(C)C)[C@@H](C)CC (I: Ac-HARQTKIYIVDVLSVGC-NH2 / II: R[Orn]R[Orn]R[Orn]R[Orn]-NH2; linker I:17-II:N via X1) | 8.2 | 8.2 | < 5.09 | < 5.09 | < 5.06 | 8.7
CC[C@H](C)[C@H](NC(=O)[C@@H](NC(=O)[C@H](CC(N)=O)NC(=O)[C@H](Cc1ccc(O)cc1)NC(=O)[C@H](CC(C)C)NC(=O)[C@H](CO)NC(=O)[C@H](CCCNC(=N)N)NC(=O)[C@H](CC(C)C)NC(=O)[C@H](CCC(=O)O)NC(=O)[C@H](CCC(=O)O)NC(=O)[C@H](CO)NC(C)=O)[C@@H](C)O)C(=O)N[C@@H](C)C(=O)N[C@H](C(=O)N[C@@H](CC(C)C)C(=O)N[C@@H](Cc1ccc(O)cc1)C(=O)NCC(=O)N[C@@H](CSCC(=O)N[C@@H](CCCNC(=N)N)C(=O)N[C@@H](CCCNC(=N)N)C(=O)N[C@@H](CCCNC(=N)N)C(=O)N[C@@H](CCCNC(=N)N)C(=O)N[C@@H](CCCNC(=N)N)C(=O)N[C@@H](CCCNC(=N)N)C(=O)N[C@@H](CCCNC(=N)N)C(=O)N[C@@H](CCCNC(=N)N)C(N)=O)C(N)=O)C(C)C | 10 | 8.7 | < 5.00 | < 5.06 | < 4.89 | 13
CC[C@H](C)[C@H](NC(=O)[C@H](CCCNC(=N)N)NC(=O)[C@H](CCC(N)=O)NC(=O)[C@H](Cc1c[nH]cn1)NC(=O)[C@@H](NC(=O)[C@H](CO)NC(=O)[C@H](Cc1ccc(O)cc1)NC(=O)[C@H](CC(C)C)NC(=O)[C@@H](NC(=O)[C@H](C)NC(=O)[C@@H](NC(=O)[C@@H](NC(=O)[C@H](CC(N)=O)NC(=O)[C@H](Cc1ccc(O)cc1)NC(C)=O)[C@@H](C)O)[C@@H](C)CC)C(C)C)C(C)C)C(=O)N[C@@H](CC(=O)O)C(=O)NCC(=O)N[C@@H](CSCC(=O)N[C@@H](CCCNC(=N)N)C(=O)N[C@@H](CCCN)C(=O)N[C@@H](CCCNC(=N)N)C(=O)N[C@@H](CCCN)C(=O)N[C@@H](CCCNC(=N)N)C(=O)N[C@@H](CCCN)C(=O)N[C@@H](CCCNC(=N)N)C(=O)N[C@@H](CCCN)C(N)=O)C(N)=O (I: Ac-YNTIAVLYSVHQRIDGC-NH2 / II: R[Orn]R[Orn]R[Orn]R[Orn]-NH2; linker I:17-II:N via X1) | 7 | 7.7 | < 5.15 | 5.77 | 5.85 | 7.6
CC[C@H](C)[C@H](NC(=O)[C@@H](NC(=O)[C@H](CC(N)=O)NC(=O)[C@H](Cc1ccc(O)cc1)NC(=O)[C@H](CC(C)C)NC(=O)[C@H](CO)NC(C)=O)[C@@H](C)O)C(=O)N[C@@H](C)C(=O)N[C@H](C(=O)N[C@@H](CC(C)C)C(=O)N[C@@H](Cc1ccc(O)cc1)C(=O)N[C@@H](CO)C(=O)N[C@H](C(=O)N[C@@H](Cc1c[nH]cn1)C(=O)N[C@@H](CCC(N)=O)C(=O)N[C@@H](CCCNC(=N)N)C(=O)NCC(=O)N[C@@H](CSCC(=O)N[C@@H](CCCNC(=N)N)C(=O)N[C@@H](CCCN)C(=O)N[C@@H](CCCNC(=N)N)C(=O)N[C@@H](CCCN)C(=O)N[C@@H](CCCNC(=N)N)C(=O)N[C@@H](CCCN)C(=O)N[C@@H](CCCNC(=N)N)C(=O)N[C@@H](CCCN)C(N)=O)C(N)=O)C(C)C)C(C)C (I: Ac-SLYNTIAVLYSVHQRGC-NH2 / II: R[Orn]R[Orn]R[Orn]R[Orn]-NH2; linker I:17-II:N via X1) | 4.8 | 4.4 | < 5.32 | 6.00 | < 5.34 | 4.6
CC[C@H](C)[C@H](NC(=O)[C@@H](NC(=O)[C@H](CC(N)=O)NC(=O)[C@H](Cc1ccc(O)cc1)NC(=O)[C@H](CC(C)C)NC(=O)[C@H](CO)NC(=O)[C@H](CCCNC(=N)N)NC(=O)[C@H](CC(C)C)NC(=O)[C@H](CCC(=O)O)NC(=O)[C@H](CCC(=O)O)NC(C)=O)[C@@H](C)O)C(=O)N[C@@H](C)C(=O)N[C@H](C(=O)N[C@@H](CC(C)C)C(=O)N[C@@H](Cc1ccc(O)cc1)C(=O)N[C@@H](CO)C(=O)NCC(=O)N[C@@H](CSCC(=O)N[C@@H](CCCNC(=N)N)C(=O)N[C@@H](CCCN)C(=O)N[C@@H](CCCNC(=N)N)C(=O)N[C@@H](CCCN)C(=O)N[C@@H](CCCNC(=N)N)C(=O)N[C@@H](CCCN)C(=O)N[C@@H](CCCNC(=N)N)C(=O)N[C@@H](CCCN)C(N)=O)C(N)=O)C(C)C | 9.3 | 10 | < 5.03 | < 5.00 | < 5.03 | 9.3
CC[C@H](C)[C@H](NC(=O)[C@@H](NC(=O)[C@H](CC(N)=O)NC(=O)[C@H](Cc1ccc(O)cc1)NC(=O)[C@H](CC(C)C)NC(=O)[C@H](CO)NC(=O)[C@H](CCCNC(=N)N)NC(C)=O)[C@@H](C)O)C(=O)N[C@@H](C)C(=O)N[C@H](C(=O)N[C@@H](CC(C)C)C(=O)N[C@@H](Cc1ccc(O)cc1)C(=O)N[C@@H](CO)C(=O)N[C@H](C(=O)N[C@@H](Cc1cnc[nH]1)C(=O)N[C@@H](CCC(N)=O)C(=O)NCC(=O)N[C@@H](CSCC(=O)N[C@@H](CCCNC(=N)N)C(=O)N[C@@H](CCCN)C(=O)N[C@@H](CCCNC(=N)N)C(=O)N[C@@H](CCCN)C(=O)N[C@@H](CCCNC(=N)N)C(=O)N[C@@H](CCCN)C(=O)N[C@@H](CCCNC(=N)N)C(=O)N[C@@H](CCCN)C(N)=O)C(N)=O)C(C)C)C(C)C (I: Ac-RSLYNTIAVLYSVHQGC-NH2 / II: R[Orn]R[Orn]R[Orn]R[Orn]-NH2; linker I:17-II:N via X1) | 9.2 | 9.2 | 5.28 | 6.07 | 5.89 | 8.2
